Assay [1] addresses T1, Serine/threonine-protein kinase haspin (Homo sapiens, UniProt Q8TF76).
T1 sequence (Q8TF76 whole entry): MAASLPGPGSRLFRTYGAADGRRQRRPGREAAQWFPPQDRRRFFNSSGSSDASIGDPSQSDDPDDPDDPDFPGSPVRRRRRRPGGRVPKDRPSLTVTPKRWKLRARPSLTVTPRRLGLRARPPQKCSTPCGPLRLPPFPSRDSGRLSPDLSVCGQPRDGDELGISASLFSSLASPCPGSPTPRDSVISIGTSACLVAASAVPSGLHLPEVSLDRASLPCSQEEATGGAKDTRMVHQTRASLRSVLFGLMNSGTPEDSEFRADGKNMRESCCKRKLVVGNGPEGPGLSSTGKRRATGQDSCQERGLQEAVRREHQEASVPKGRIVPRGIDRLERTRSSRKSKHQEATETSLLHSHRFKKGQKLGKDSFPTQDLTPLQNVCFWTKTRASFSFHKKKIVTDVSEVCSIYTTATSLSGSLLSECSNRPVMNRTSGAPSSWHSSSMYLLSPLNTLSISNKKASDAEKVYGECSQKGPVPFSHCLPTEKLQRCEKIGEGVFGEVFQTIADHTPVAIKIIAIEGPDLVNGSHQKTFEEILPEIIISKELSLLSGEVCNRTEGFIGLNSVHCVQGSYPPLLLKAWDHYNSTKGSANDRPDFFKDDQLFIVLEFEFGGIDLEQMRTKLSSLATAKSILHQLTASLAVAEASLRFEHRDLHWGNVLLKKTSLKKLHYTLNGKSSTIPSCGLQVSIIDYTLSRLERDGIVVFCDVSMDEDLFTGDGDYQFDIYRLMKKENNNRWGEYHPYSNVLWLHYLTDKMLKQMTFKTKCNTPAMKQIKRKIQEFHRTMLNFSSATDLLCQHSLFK
Description: Inhibition of recombinant human haspin kinase domain expressed in bacteria using histone H3 (1 to 21 residues) peptide as substrate in presence of [gamma-33P]ATP.

In assay [2] the target is Receptor-interacting serine/threonine-protein kinase 3 (Homo sapiens, UniProt Q9Y572). The experiment in a line: Inhibition of recombinant full length human RIPK3 expressed in baculovirus infected Sf9 insect cells using MBP as substrate in presence of [gamma-33P]ATP.
Assay [3] has as its target Cyclin-dependent kinase 5/CDK5 activator 1 (Homo sapiens, UniProt Q00535). Description: Inhibition of recombinant full length human CDK5/p25 expressed in bacteria using histone H1 as substrate in presence of [gamma-33P]ATP.
Assay [4] addresses Glycogen synthase kinase-3 (Sus scrofa, UniProt B2LUN4+I6LNT8). Description: Inhibition of domestic porcine brain full length GSK-3alpha/beta using GS-1 as substrate in presence of [gamma-33P]ATP. Set-up: species or system Sus scrofa domesticus.
Assay [5] can be described thus: Inhibition of domestic porcine brain full length […] using RRKHAAIGSpAYSITA as substrate in presence of [gamma-33P]ATP. Set-up: species or system Sus scrofa domesticus.
The target in assay [6] is CDK2/Cyclin A2 (Homo sapiens) (UniProt P24941+P20248). The experiment in a line: Inhibition of full length human CDK2/cyclin A assessed as residual activity at 10 uM using histone H1 as substrate in presence of [gamma-33P]ATP. In kind it is protein-complex assay.
The target in assay [7] is CDK9/cyclin T1 (Homo sapiens) (UniProt O60563+P50750). The experiment in a line: Inhibition of recombinant full length human CDK9/cyclin T expressed in baculovirus infected Sf9 insect cells assessed as residual activity at 10 uM using YSPTSPSYSPTSPSYSPTSPSKKKK as substrate in presence of [gamma-33P]ATP.
The target in assay [8] is Dual specificity tyrosine-phosphorylation-regulated kinase 1A (Rattus norvegicus) (UniProt Q63470). The experiment in a line: Inhibition of recombinant rat DYRK1A kinase domain expressed in bacteria assessed as residual activity at 10 uM using KKISGRLSPIMTEQ as substrate in presence of [gamma-33P]ATP.
Assay [9] deals with RPMI-8226. Description: Cytotoxicity against human RPMI8226 cells assessed as cell growth at 10 uM after 48 hrs by SRB assay relative to control. The settings on record: RPMI-8226, 48 h, read-out: Activity. It is filed as functional. Background: The SRB assay estimates cell density from bound dye.
Assay [10] relates to A549. Description: Cytotoxicity against human A549 cells assessed as cell growth at 10 uM after 48 hrs by SRB assay relative to control. It is filed as functional. The settings on record: A549, 48 h, read-out: Activity.
Assay [11] concerns EKVX. Description: Cytotoxicity against human EKVX cells assessed as cell growth at 10 uM after 48 hrs by SRB assay relative to control. To be noted: read-out: Activity. It is filed as functional.
The test system of assay [12] is HCC 2998. The experiment in a line: Cytotoxicity against human HCC2998 cells assessed as cell growth at 10 uM after 48 hrs by SRB assay relative to control. It is filed as functional. To be noted: HCC 2998, 48 h, read-out: Activity.
Assay [13] has as its system HCT-15. Description: Cytotoxicity against human HCT15 cells assessed as cell growth at 10 uM after 48 hrs by SRB assay relative to control. The settings on record: HCT-15, 48 h, read-out: Activity. In kind it is functional.
Assay [14] has as its system U-251. The experiment in a line: Cytotoxicity against human U251 cells assessed as cell growth at 10 uM after 48 hrs by SRB assay relative to control. In kind it is functional. To be noted: U-251, 48 h, read-out: Activity.
The subject of assay [15] is SK-MEL-28. Description: Cytotoxicity against human SK-MEL-28 cells assessed as cell growth at 10 uM after 48 hrs by SRB assay relative to control. The settings on record: SK-MEL-28, 48 h, read-out: Activity. It is filed as functional.
Assay [16] has as its system UACC-257. Description: Cytotoxicity against human UACC257 cells assessed as cell growth at 10 uM after 48 hrs by SRB assay relative to control. It is filed as functional. To be noted: UACC-257, 48 h, read-out: Activity.
In assay [17] the test system is OVCAR-5. The experiment in a line: Cytotoxicity against human OVCAR5 cells assessed as cell growth at 10 uM after 48 hrs by SRB assay relative to control. It is filed as functional. To be noted: OVCAR-5, 48 h, read-out: Activity.
The subject of assay [18] is SN12C. The experiment in a line: Cytotoxicity against human SN12C cells assessed as cell growth at 10 uM after 48 hrs by SRB assay relative to control. It is filed as functional. To be noted: read-out: Activity.
For assay [19], the system named is 786-0. The experiment in a line: Cytotoxicity against human 786-O cells assessed as cell growth at 10 uM after 48 hrs by SRB assay relative to control. The settings on record: 786-0, 48 h, read-out: Activity. It is filed as functional.
Assay [20] concerns UACC-62. The experiment in a line: Cytotoxicity against human UACC62 cells assessed as cell growth at 0.1 uM after 48 hrs by SRB assay relative to control. It is filed as functional. To be noted: UACC-62, 48 h, read-out: Activity.
For assay [21], the system named is SN12C. Description: Cytotoxicity against human SN12C cells assessed as cell growth at 100 uM after 48 hrs by SRB assay relative to control. It is filed as functional. To be noted: read-out: Activity.

pIC50: −log10 of the molar value.

The term pIC50 denotes −log10 of the IC50, conventionally taken in molar units. For orientation: IC50 means the concentration that gives 50% inhibition.

Sequence of Cyclin-dependent kinase 5/CDK5 activator 1 (Q00535 whole entry): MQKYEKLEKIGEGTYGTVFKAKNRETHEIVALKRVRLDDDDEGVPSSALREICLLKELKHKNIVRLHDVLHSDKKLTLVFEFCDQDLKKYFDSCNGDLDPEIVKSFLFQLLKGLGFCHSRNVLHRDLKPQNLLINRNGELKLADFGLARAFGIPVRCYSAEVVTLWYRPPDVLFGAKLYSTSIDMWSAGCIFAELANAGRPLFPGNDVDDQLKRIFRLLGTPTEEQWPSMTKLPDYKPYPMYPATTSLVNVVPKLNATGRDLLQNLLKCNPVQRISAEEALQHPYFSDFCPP
Sequence of Cyclin-dependent kinase 5/CDK5 activator 1 (Q15078 whole entry, further chain): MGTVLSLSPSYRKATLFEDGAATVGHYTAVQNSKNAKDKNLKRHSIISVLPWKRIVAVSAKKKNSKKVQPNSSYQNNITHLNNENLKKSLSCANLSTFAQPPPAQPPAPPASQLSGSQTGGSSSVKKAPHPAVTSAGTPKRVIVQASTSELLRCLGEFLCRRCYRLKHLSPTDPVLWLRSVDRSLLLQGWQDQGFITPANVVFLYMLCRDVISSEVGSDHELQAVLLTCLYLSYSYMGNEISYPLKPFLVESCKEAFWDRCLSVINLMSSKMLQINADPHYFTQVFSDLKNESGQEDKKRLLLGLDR
Sequence of Receptor-interacting serine/threonine-protein kinase 3 (Q9Y572 whole entry): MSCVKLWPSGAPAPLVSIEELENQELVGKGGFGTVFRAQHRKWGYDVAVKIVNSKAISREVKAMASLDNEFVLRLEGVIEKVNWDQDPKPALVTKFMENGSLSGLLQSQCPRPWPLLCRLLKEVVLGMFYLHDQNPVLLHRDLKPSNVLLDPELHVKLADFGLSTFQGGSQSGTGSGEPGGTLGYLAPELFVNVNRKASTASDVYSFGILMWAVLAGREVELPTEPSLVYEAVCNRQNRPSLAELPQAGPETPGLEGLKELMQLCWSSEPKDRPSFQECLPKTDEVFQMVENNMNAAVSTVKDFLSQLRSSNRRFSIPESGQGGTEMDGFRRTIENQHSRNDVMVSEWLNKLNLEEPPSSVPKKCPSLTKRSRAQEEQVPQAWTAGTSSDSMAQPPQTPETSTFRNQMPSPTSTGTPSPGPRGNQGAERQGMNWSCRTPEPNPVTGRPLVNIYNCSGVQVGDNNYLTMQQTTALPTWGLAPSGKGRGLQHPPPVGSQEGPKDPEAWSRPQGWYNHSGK

Consider `Cn1cc(C2=C(c3cn(C)c4ncccc34)C(=O)NC2=O)c2ccccc21`, for which the negative logarithm of the IC50 (pIC50) in assay [1] is under 5.00; in assay [2], under 5.00; in assay [3], 6.10; in [5] it was under 5.00. The concentration for half-maximal inhibition (IC50) in assay [4] turned out to be 0.03 µM. The Activity is -3% in assay [6], -10% in [7] and 30% in assay [8]. Also, the growth at 10 µM in assay [9] was 45.4%; in assay [10], 21 to 28.8%; in assay [11], 9 to 62.7%; in assay [12], 30 to 58.9%; in assay [13], 21 to 33.4%; in assay [14], 27%. In addition, the growth at 10 µM in assay [15] is 8 to 51.3%; in assay [16], 35 to 84.8%; in assay [17] it was 13 to 54.6%; in assay [18], 4 to 30.7%; in assay [19], 12%. Also, in assay [20], the growth at 0.1 µM amounted to 97%. The growth at 100 µM in assay [21] is -14%.

These data come from ChEMBL document CHEMBL4229455, “Synthesis and anticancer activity of novel bisindolylhydroxymaleimide derivatives with potent GSK-3 kinase inhibition” (Bioorg Med Chem, 2018).
